Results on 21 compounds are retold here after ChEMBL document CHEMBL2046413, “Iridoid glucosides and a C₁₃-norisoprenoid from Lamiophlomis rotata and their effects on NF-κB activation” (Bioorg Med Chem Lett, 2012).

The structures appear in SMILES notation.

Assay [1] deals with HEK293. The assay can be described thus: Inhibition of LPS-induced NF-KB transcriptional activity expressed in HEK-293 cells at 10 ug/ml after 4 hrs by luciferase reporter gene assay relative to LPS-treated group. Type of assay: cell-based. A general note: In a reporter assay the amount or activity of a reporter protein is the signal.
Assay [2] deals with HEK293. The assay can be described thus: Inhibition of LPS-induced NF-KB transcriptional activity expressed in HEK-293 cells at 1 ug/ml after 4 hrs by luciferase reporter gene assay relative to LPS-treated group. Type of assay: cell-based.
Assay [3] concerns HEK293. In words: Inhibition of LPS-induced NF-KB transcriptional activity expressed in HEK-293 cells at 100 ug/ml after 4 hrs by luciferase reporter gene assay relative to LPS-treated group. Type of assay: cell-based.
Assay [4] relates to HEK293. The assay can be described thus: Inhibition of NF-KB production in human HEK293 cells by BCA protein assay. Type of assay: functional, cell-based.

In the assay on HEK293 [1], `COC(=O)C1=CO[C@@H](O[C@@H]2O[C@H](CO)[C@@H](O)[C@H](O)[C@H]2O)[C@@H]2[C@@H](C)[C@@H](O)C[C@H]12` registered an RLU of 0.56. The NF-κB luciferase activity relative to LPS-treated group in the assay on HEK293 [2] came to 0.66; with HEK293 [3] it was 0.56.
As for `C[C@]12CCC(=O)C=C1CC[C@@H]1[C@@H]2[C@@H](O)C[C@@]2(C)[C@H]1CC[C@]2(O)C(=O)CO`, in the assay with HEK293 [1], the RLU is 0.32. Also, the NF-κB luciferase activity relative to LPS-treated group in the assay on HEK293 [2] was found to be 0.26; in the assay with HEK293 [3], 0.45.
In the case of `COC(=O)C1=CO[C@@H](O[C@@H]2O[C@H](CO)[C@@H](O)[C@H](O)[C@H]2O)[C@@H]2[C@H](C)CC[C@H]12`, the inhibition result in the assay with HEK293 [4] is “Dose-dependent effect”. Moreover, the RLU in the assay with HEK293 [1] was determined as 0.44. In addition, the NF-κB luciferase activity relative to LPS-treated group came out at 0.23 in the assay on HEK293 [2] and 0.62 with HEK293 [3].
In turn, `COC(=O)C1=CO[C@@H](O[C@@H]2O[C@H](CO)[C@@H](O)[C@H](O)[C@H]2O)[C@@H]2[C@H](C)[C@@H](O)C[C@H]12` registered an RLU with HEK293 [1] of 0.13. For the same compound, the NF-κB luciferase activity relative to LPS-treated group in the assay on HEK293 [2] was determined as 0.14; in the assay on HEK293 [3], 0.26.
On to `COC(=O)C1=CO[C@@H](O[C@@H]2O[C@H](CO)[C@@H](O)[C@H](O)[C@H]2O)[C@H]2[C@@H]1[C@H](O)[C@H](O)[C@@]2(C)O`, for which, in the assay with HEK293 [1], the RLU was 0.15. Further, the NF-κB luciferase activity relative to LPS-treated group was determined as 0.37 with HEK293 [2] and 0.38 in the assay on HEK293 [3].
`COC(=O)C1=CO[C@@H](O[C@@H]2O[C@H](CO)[C@@H](O)[C@H](O)[C@H]2O)[C@H]2[C@@H]1[C@H](O)C[C@]2(C)O` yielded an RLU in the assay with HEK293 [1] of 0.21. In addition, the results for the NF-κB luciferase activity relative to LPS-treated group in the assay with HEK293 [2] and in the assay on HEK293 [3] were 0.39 and 0.31, respectively.
As to `COC(=O)C1=CO[C@@H](O[C@@H]2O[C@H](CO)[C@@H](O)[C@H](O)[C@H]2O)[C@@H]2[C@@]3(C)O[C@H]3[C@@H](O)[C@]12O`, the RLU with HEK293 [1] came out at 0.14. In addition, the NF-κB luciferase activity relative to LPS-treated group in the assay with HEK293 [2] came out at 0.15; with HEK293 [3] it was 0.36.
Consider `COC(=O)C1=CO[C@@H](O[C@@H]2O[C@H](CO)[C@@H](O)[C@H](O)[C@H]2O)[C@H]2[C@@H]1[C@H](O)[C@H](O)[C@]2(C)O`, for which the RLU in the assay on HEK293 [1] worked out at 0.19. Moreover, the NF-κB luciferase activity relative to LPS-treated group is 0.23 in the assay on HEK293 [2] and 0.41 with HEK293 [3].
Take `COC(=O)C1=CO[C@@H](O[C@@H]2O[C@H](CO)[C@@H](O)[C@H](O)[C@H]2O)[C@H]2[C@@H]1[C@H](OC(C)=O)C[C@]2(C)O`: in the assay with HEK293 [1], the RLU is 0.13. The results for the NF-κB luciferase activity relative to LPS-treated group with HEK293 [2] and in the assay on HEK293 [3] were 0.06 and 0.11, respectively.
Regarding `C=CC(C)(O)CC/C=C(\C)C(=O)O[C@@H]1C[C@](C)(OC(C)=O)[C@H]2[C@H](O[C@@H]3O[C@H](CO)[C@@H](O)[C@H](O)[C@H]3O)OC=C(C(=O)OC)[C@H]21` (stereo partly specified), the RLU in the assay on HEK293 [1] worked out at 0.21. Moreover, the values for the NF-κB luciferase activity relative to LPS-treated group in the assay on HEK293 [2] and in the assay with HEK293 [3] were 0.25 and 0.31, respectively.
Consider `CCCCO[C@@H]1C=C(C)[C@H]2[C@H](O[C@@H]3O[C@H](CO)[C@@H](O)[C@H](O)[C@H]3O)OC=C(C(=O)OC)[C@H]21`, for which the inhibition result in the assay on HEK293 [4] is “Dose-dependent effect”. The same compound gave an RLU with HEK293 [1] of 0.38. Further, the results for the NF-κB luciferase activity relative to LPS-treated group in the assay on HEK293 [2] and with HEK293 [3] were 0.15 and 0.48, respectively.
`COC(=O)C1=CO[C@@H](O[C@@H]2O[C@H](CO)[C@@H](O)[C@H](O)[C@H]2O)[C@H]2[C@@H]1[C@H](O)[C@@H](Cl)[C@]2(C)O` yielded an RLU with HEK293 [1] of 0.19. In addition, the NF-κB luciferase activity relative to LPS-treated group with HEK293 [2] was 0.05; in the assay with HEK293 [3], 0.22.
As for `COC(=O)C1=CO[C@@H](O[C@@H]2O[C@H](CO)[C@@H](O)[C@H](O)[C@H]2O)[C@@H]2C(C)=C[C@@H](O)[C@]12O`, in the assay with HEK293 [4], the inhibition result was “Dose-dependent effect”. Further, in the assay on HEK293 [1], the RLU came out at 0.18. Also, the figures for the NF-κB luciferase activity relative to LPS-treated group in the assay with HEK293 [2] and in the assay with HEK293 [3] were 0.06 and 0.24, respectively.
Take `C=C1C[C@@H](O)[C@@H]2C(C(=O)OC)=CO[C@@H](O[C@@H]3O[C@H](CO)[C@@H](O)[C@H](O)[C@H]3O)[C@H]12`: the RLU with HEK293 [1] worked out at 0.43. The results for the NF-κB luciferase activity relative to LPS-treated group in the assay with HEK293 [2] and with HEK293 [3] were 0.26 and 0.4, respectively.
`COC(=O)C1=CO[C@@H](O[C@@H]2O[C@H](CO)[C@@H](O)[C@H](O)[C@H]2O)[C@@H]2[C@@](C)(O)[C@@H](O)[C@@H](O)[C@]12O` returned an RLU with HEK293 [1] of 0.34. In addition, the figures for the NF-κB luciferase activity relative to LPS-treated group with HEK293 [2] and in the assay with HEK293 [3] were 0.56 and 0.49, respectively.
In the assay with HEK293 [1], `COC(=O)C1=CO[C@@H](O[C@@H]2O[C@H](CO)[C@@H](O)[C@H](O)[C@H]2O)[C@H]2[C@@H]1[C@H](O)C[C@]2(C)OC(C)=O` showed an RLU of 0.4. For the same compound, the NF-κB luciferase activity relative to LPS-treated group in the assay with HEK293 [2] worked out at 0.13; in the assay with HEK293 [3], 0.34.
As for `COC(=O)C1=CO[C@@H](O[C@@H]2O[C@H](CO)[C@@H](O)[C@H](O)[C@H]2O)[C@H]2[C@@H]1[C@H](O)[C@@H]1O[C@]21C`, the RLU in the assay with HEK293 [1] came out at 0.46. Besides, the NF-κB luciferase activity relative to LPS-treated group with HEK293 [2] worked out at 0.23; in the assay with HEK293 [3], 0.42.
For the compound `COC(=O)C1=CO[C@@H](O[C@@H]2O[C@H](CO)[C@@H](O)[C@H](O)[C@H]2O)[C@@H]2C(C)=C[C@@H](O)[C@H]12`, the RLU in the assay on HEK293 [1] is 0.59. Besides, the NF-κB luciferase activity relative to LPS-treated group is 0.5 with HEK293 [2] and 0.68 in the assay with HEK293 [3].
As for `COC(=O)C1=CO[C@@H](O[C@@H]2O[C@H](COC(=O)c3cc(OC)c(O)c(OC)c3)[C@@H](O)[C@H](O)[C@H]2O)[C@H]2[C@@H]1[C@H](O)[C@@H]1O[C@]21C`, the RLU in the assay on HEK293 [1] came to 0.32. Moreover, the NF-κB luciferase activity relative to LPS-treated group in the assay on HEK293 [2] came out at 0.55; with HEK293 [3], 0.48.
`COC(=O)C1=CO[C@@H](O[C@@H]2O[C@H](CO)[C@@H](O)[C@H](O)[C@H]2O)[C@@H]2[C@@](C)(O)[C@H](O)[C@@H](O)[C@]12O` returned an RLU in the assay on HEK293 [1] of 0.34. In addition, the NF-κB luciferase activity relative to LPS-treated group came out at 0.18 in the assay on HEK293 [2] and 0.31 in the assay with HEK293 [3].
As for `COC(=O)C1=CO[C@@H](O[C@@H]2O[C@H](CO)[C@@H](O)[C@H](O)[C@H]2O)[C@H]2[C@@H]1[C@H](OC(=O)c1cc(OC)c(O)c(OC)c1)C[C@]2(C)OC(C)=O`, the RLU in the assay with HEK293 [1] was found to be 0.08. Besides, the values for the NF-κB luciferase activity relative to LPS-treated group in the assay on HEK293 [2] and with HEK293 [3] were 0.12 and 0.42, respectively.
